The values that follow come from patent publication US10391068B2 (priority 2012, dated 2019).

Values joined by “and” are separate entries in the source; they are usually repeats but may differ in a detail not shown here. Equal entries are not always repeated. “Also recorded” adds a separate entry of the source. Where two headings read alike, the source gives them in different places. Where only a bound is given, the exact number is not on record here.

The target of assay [1] is recombinant mouse PrP^C (Mus musculus, UniProt P04925). Kind of assay: biochemical. The assay is classed as binding.
Assay [2] deals with Recombinant C-PrP (residues 120-230) (Mus musculus, UniProt P04925). The assay is classed as binding.
In assay [3] the target is BSA (Bos taurus, UniProt P02769). Format: binding.
The target of assay [4] is myoglobin (Equus caballus, UniProt P68082). The assay is classed as binding.
myoglobin, sequence (P68082 2-154): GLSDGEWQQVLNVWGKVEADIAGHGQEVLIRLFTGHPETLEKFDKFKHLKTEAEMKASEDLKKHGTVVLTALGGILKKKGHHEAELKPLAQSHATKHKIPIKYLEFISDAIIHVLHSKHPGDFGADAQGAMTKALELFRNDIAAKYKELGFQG
Assay [5] has as its target Aβ oligomers binding to PrP^C (Mus musculus, UniProt P04925). Nature of the assay: biochemical.
The target of assay [6] is PrP^23-230 (Mus musculus, UniProt P04925). Format: binding.
Assay [7] addresses T1, moPrP (23-230) (Mus musculus, UniProt P04925). Format: biochemical.
The target in assay [8] is recombinant C-PrP (Mus musculus, UniProt P04925). Kind of assay: biochemical. Format: binding.
In assay [9] the test system is Aβ oligomer binding to PrP-expressing HEK cells. The assay is classed as cell-based.
Assay [10] has as its target human recombinant PrP^C (Homo sapiens, UniProt P04156). Kind of assay: biochemical. The assay is classed as binding.
The subject of assay [11] is moPrP (23-230). The assay is classed as binding, mouse.
The target of assay [12] is T2, N-PrP (23-111) (Mus musculus, UniProt P04925). Format: biochemical.
Assay [13] concerns the target T1, moPrP (23-230).
For assay [14], the target named is Aβ oligomers binding to PrP^C (Homo sapiens, UniProt P04156).
Assay [15] deals with T2, N-PrP (23-111). The assay is classed as binding.
The target in assay [16] is C-PrP (120-230) (Mus musculus, UniProt P04925). Format: binding.
For assay [17], the target named is Aβ oligomers binding to N-PrP (Mus musculus, UniProt P04925).
For assay [18], the system named is postnatal mouse hippocampal neurons treated with Aβ oligomers. Format: cell-based.
Assay [19] is classed as binding. The settings on record: read-out: KD (did not bind detectably).
Assay [20] relates to Aβ oligomer inhibition of LTP in hippocampal slices. The assay is classed as cell-based, mice.
Assay [21] concerns the target T3, N-PrP / C-PrP interaction (Mus musculus, UniProt P04925). Format: biochemical.
Assay [22] has as its system PrP^Sc replication.
Assay [23] deals with bovine serum albumin (Bos taurus, UniProt P02769). Nature of the assay: biochemical.
bovine serum albumin, sequence (P02769 25-607): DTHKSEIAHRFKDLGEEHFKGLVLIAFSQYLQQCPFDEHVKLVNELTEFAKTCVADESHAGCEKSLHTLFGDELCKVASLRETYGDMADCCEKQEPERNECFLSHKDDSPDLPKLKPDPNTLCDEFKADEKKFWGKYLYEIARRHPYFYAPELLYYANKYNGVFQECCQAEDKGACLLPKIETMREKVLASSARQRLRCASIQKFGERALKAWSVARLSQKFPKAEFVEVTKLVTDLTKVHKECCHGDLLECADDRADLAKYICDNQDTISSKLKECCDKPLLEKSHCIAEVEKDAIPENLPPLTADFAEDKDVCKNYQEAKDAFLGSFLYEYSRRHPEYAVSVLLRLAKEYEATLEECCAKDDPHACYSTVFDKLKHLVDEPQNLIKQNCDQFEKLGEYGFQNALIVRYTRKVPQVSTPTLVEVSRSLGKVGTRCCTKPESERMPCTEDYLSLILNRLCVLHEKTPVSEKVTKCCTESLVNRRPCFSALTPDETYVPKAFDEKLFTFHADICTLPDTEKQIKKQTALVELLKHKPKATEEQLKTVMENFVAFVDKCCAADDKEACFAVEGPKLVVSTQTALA
In assay [24] the target is T3, N-PrP / C-PrP interaction. The assay is classed as binding.

Consider `O=C1OC(C(O)C(O)CO)C(O)C1O` (stereo not drawn) [DS86, 3R,4S-dihydroxy-5S-(1,2,3-trihydroxypropyl)dihydrofuran-2(3H)-one], for which the “binding to PrP^C by SPR (in words)” value in assay [1] is “lower affinity; also recorded: also bind to PrP^C”.
`O=C(O)c1cc(NC(=S)NN=C2C(O)C(O)C(O)C(O)C2O)ccc1-c1c2ccc(=O)cc-2oc2cc(O)ccc12` [DS104, (Z)—N-(3′,6′-dihydroxy-3-oxo-3H-spiro[isobenzofuran-1,9′-xanthen]-5-yl)-2-((2R,3R,4S,5R,6S)-2,3,4,5,6-pentahydroxycyclohexylidene)hydrazinecarbothioamide]: the Kd in assay [2] was 4 µM. Moreover, in assay [3], the “binding to BSA by FP” value is given as “not detected”. The “binding to myoglobin by FP” value in assay [4] was “not detected”.
`O=C(CN1CCCC1)Nc1ccc(Cc2ccc(NC(=O)CN3CCCC3)cc2)cc1` [GN8, N,N′-(methylenedi-4,1-phenylene)bis[2-(1-pyrrolidinyl)acetamide], reference compound]: in assay [1], the Kd is over 1000 µM and the “binding to PrP^C by SPR (in words)” value is given as “does not bind; also recorded: no detectable binding; also recorded: failed to bind; also recorded: failed to detect binding”. Further, the “inhibition of Aβ oligomer binding to PrP^C by SPR (in words)” value in [5] is “does not bind PrPC in the SPR assay used for studying the binding of PrPC ligands to PrPC or inhibit binding of Aβ oligomers to PrP^C”. In addition, the “binding to PrP^C by EqD (in words)” value in assay [6] was “No binding was observed; also recorded: failed to detect binding”.
Take `COc1ccc(CCNC(=S)N/N=C2\[C@@H](O)[C@@H](O)[C@@H](O)[C@H](O)[C@H]2O)cc1OC` [DS207]: in [1], the Kd was determined as 64.8 µM and the “binding to PrP^C by SPR (in words)” value is “bind to PrP^C”.
Turning to `CC(C)(C)NC(=S)N/N=C1\[C@@H](O)[C@@H](O)[C@@H](O)[C@H](O)[C@H]1O` [DS210], in [1], the Kd worked out at 63.1 µM and the “binding to PrP^C by SPR (in words)” value was “bind to PrP^C”.
With `FC(F)(F)c1cccc(COn2c(-c3ccccc3)nc3ncccc32)c1` [DS15, reference compound], in assay [7], the “Trp fluorescence of full-length PrP (in words)” value is reported as “did not produce any change in Trp fluorescence; also recorded: did not alter the trp fluorescence”. For the same molecule, the “binding to PrP^C by EqD (in words)” value in [6] is listed as “No binding was observed”.
Turning to `O[C@@H]1[C@H](O)[C@H](O)/C(=N\NC(=S)NCc2ccc(F)cc2)[C@H](O)[C@H]1O` [DS211], in [1], the Kd was found to be 62.3 µM and the “binding to PrP^C by SPR (in words)” value was “bind to PrP^C”.
“2R,3S,4S,5S,6R)-2-(hydroxymethyl)-6-[β-hydroxyphenyl)amino]tetrahydro-2H-pyran-3,4,5-triol [DS5]”: the “binding to PrP^C by SPR (in words)” value in assay [1] was “lower affinity; also recorded: also bind to PrP^C”. Further, the “competition with / displacement of DS104 (in words)” value (“competition with / displacement” below) in assay [8] is “able to displace DS104; also recorded: competed with DS104”.
Turning to `NC(=S)NN=C1C(O)C(O)C(O)C(O)C1O` [DS26, 2-(2R,3S,5R,6S-pentahydroxycyclohexylidene)hydrazinecarbothioamide], in assay [9], the “estimated IC50 on cells (in words)” value is “higher than the corresponding value observed by SPR and ELISA”; the “inhibition of Aβ oligomer binding to PrP^C on cells (in words)” value is recorded as “dose-dependent inhibition of Aβ binding; also recorded: inhibits binding of Aβ oligomers to PrP^C on cells”. For the same molecule, in assay [7], the “Trp fluorescence of full-length PrP (in words)” value is reported as “dose-dependent quenching; also recorded: quenched the trp fluorescence in a dose-dependent manner”. Moreover, in assay [10], the Kd was 0.571 µM and the “binding to human versus mouse PrP^C (in words)” value is “identical affinity”. For the same molecule, in assay [11], the “difference in Tm versus PrP^C alone” value was 2.11 °C; the “melting temperature (Tm) of PrP in presence of compound” value was 68.93±0.1 °C and 68.9 °C. The “Trp fluorescence of N-PrP (in words)” value in assay [12] is listed as “unaffected; also recorded: did not alter the trp fluorescence”. Moreover, in [1], the “DS26 remained bound to PrP^C after washing” value is given as 70%, the Kd came to 0.571 µM, the “binding to PrP^C by SPR (in words)” value was “sub-micromolar affinity; also recorded: higher affinity; also recorded: stereospecific; also recorded: bound; also recorded: binds; also recorded: bind to PrP^C” and the koff was 0.00014 s⁻¹. In assay [1], the kon stood at 245 M⁻¹ s⁻¹ and the “rate of dissociation (Koff) from PrP^C (in words)” value is “particularly slow rate of dissociation; also recorded: remarkably slow dissociation kinetics”. For the same molecule, the residence time in assay [1] (read-out: half-life for the bound state) worked out at 83 min. Besides, in [1] (read-out: koff rate), the koff stood at 0.00014 s⁻¹. In addition, the kon in [1] (read-out: kon rate) was found to be 245 M⁻¹ s⁻¹. The “far-UV CD spectrum of PrP^C (in words)” value in [13] is “did not detectably alter the CD spectrum of PrP^C; also recorded: does not affect the far-UV CD spectrum”. In assay [5], the IC50 was about 15 µM, the “inhibition of Aβ oligomer binding to PrP^C by SPR (in words)” value is recorded as “inhibited binding of Aβ oligomers to PrP^C in a dose-dependent fashion; also recorded: decreased the binding of Aβ oligomers to PrP^C in a dose-dependent manner; also recorded: prevents binding of Aβ oligomers” and the “reduction of the Aβ oligomer-PrP^C interaction” value is on record as “more than 90%”. Moreover, in assay [8], the Kd is 0.3 µM and the “competition with / displacement” value is listed as “able to displace DS104; also recorded: competed with DS104”. In assay [6], the “binding to PrP^C by EqD (in words)” value is “retained by PrP^C in the sample chamber” and the “decrease in the concentration of compound in the assay chamber” value amounted to 75%. In addition, the “release of Aβ oligomers pre-bound to PrP^C (in words)” value in assay [14] is “unable to release Aβ that was already attached to PrP^C; also recorded: unable to dislodge Aβ oligomers”. In addition, the “binding to N-PrP (in words)” value in assay [15] is “failed to bind”. Also, the “binding to C-PrP (in words)” value in assay [16] is “bound; also recorded: binds”. Besides, in [17], the “inhibition of Aβ oligomer binding to N-PrP (in words)” value was “failed to inhibit the binding of Aβ oligomers to N-PrP”. Moreover, in assay [18], the “levels of synaptic markers after Aβ oligomers (in words)” value is reported as “significantly rescued the levels of all the synaptic markers; also recorded: blocks the toxic effects of Aβ oligomers” and the “levels of synaptic markers with compound alone (in words)” value is on record as “not significantly altered”. Further, in [19], the Kd is over 1000 µM. Besides, in assay [20], the “LTP after Aβ oligomer exposure (in words)” value is given as “significantly reversed the inhibitory effect of Aβ oligomers on LTP; also recorded: significantly (*p<0.05) enhances LTP after Aβ exposure” and the “LTP with compound alone (in words)” value is listed as “No change in LTP was detected”. Moreover, in assay [21], the “co-immunoprecipitation of C-PrP with N-PrP (in words)” value is “Co-immunoprecipitation of the two PrP fragments occurred only after incubation with DS26; also recorded: C-PrP was immunoprecipitated with N-PrP only in the presence of DS26”. Also, in assay [22], the “PrP^Sc replication in vitro (in words)” value is given as “partially inhibits”. The molecule further registered a Kd in assay [23] of over 1000 µM. Moreover, in assay [24], the “N-PrP binding to C-PrP by SPR (in words)” value is listed as “N-PrP interacted with C-PrP only after pre-injection of DS26; also recorded: N-PrP bound to C-PrP that had been pre-treated with DS26”.
For the molecule `OC[C@@H](O)[C@H](O)[C@@H](O)c1nnn[nH]1` [DS40, (1S,2R,3R)-1-(1H-tetrazol-5-yl)butane-1,2,3,4-tetrol], in assay [10], the Kd is 0.801 µM and the “binding to human versus mouse PrP^C (in words)” value is on record as “identical affinity”. In addition, in assay [1], the “binding to PrP^C by SPR (in words)” value is listed as “lower affinity; also recorded: bind to PrP^C” and the “rate of dissociation (Koff) from PrP^C (in words)” value is “particularly slow rate of dissociation”. For the same molecule, the “competition with / displacement” value in assay [8] is listed as “able to displace DS104; also recorded: competed with DS104”. Further, the “binding to N-PrP (in words)” value in assay [15] is given as “failed to bind”. The “binding to C-PrP (in words)” value in [16] is reported as “bound”.
